Measured values as given in ChEMBL document CHEMBL5291721, “A preclinical secondary pharmacology resource illuminates target-adverse drug reaction associations of marketed drugs” (Nat Commun, 2023).

Tests used:
Estrogen receptor = molecular target: T1, Estrogen receptor (Homo sapiens, UniProt P03372)
T1 sequence (P03372 whole entry): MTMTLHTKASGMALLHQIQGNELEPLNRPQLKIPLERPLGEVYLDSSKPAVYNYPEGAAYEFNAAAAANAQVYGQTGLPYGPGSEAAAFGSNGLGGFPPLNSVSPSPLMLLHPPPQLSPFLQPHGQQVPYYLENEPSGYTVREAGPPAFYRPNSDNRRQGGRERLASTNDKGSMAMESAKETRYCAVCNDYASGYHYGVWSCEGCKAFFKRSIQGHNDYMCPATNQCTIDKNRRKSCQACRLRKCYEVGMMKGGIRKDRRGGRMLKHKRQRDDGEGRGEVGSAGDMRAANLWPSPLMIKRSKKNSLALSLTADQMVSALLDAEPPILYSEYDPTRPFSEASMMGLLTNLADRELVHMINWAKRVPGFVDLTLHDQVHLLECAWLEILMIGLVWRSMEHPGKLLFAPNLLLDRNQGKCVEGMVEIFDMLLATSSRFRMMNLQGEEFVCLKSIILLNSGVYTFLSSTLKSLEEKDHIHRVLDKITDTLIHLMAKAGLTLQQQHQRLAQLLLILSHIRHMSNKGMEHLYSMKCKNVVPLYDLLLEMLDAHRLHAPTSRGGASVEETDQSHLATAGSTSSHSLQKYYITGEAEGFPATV

[1] = molecular target: T2, Peroxisome proliferator-activated receptor gamma (Homo sapiens, UniProt P37231); type: functional
T2 sequence (P37231 whole entry): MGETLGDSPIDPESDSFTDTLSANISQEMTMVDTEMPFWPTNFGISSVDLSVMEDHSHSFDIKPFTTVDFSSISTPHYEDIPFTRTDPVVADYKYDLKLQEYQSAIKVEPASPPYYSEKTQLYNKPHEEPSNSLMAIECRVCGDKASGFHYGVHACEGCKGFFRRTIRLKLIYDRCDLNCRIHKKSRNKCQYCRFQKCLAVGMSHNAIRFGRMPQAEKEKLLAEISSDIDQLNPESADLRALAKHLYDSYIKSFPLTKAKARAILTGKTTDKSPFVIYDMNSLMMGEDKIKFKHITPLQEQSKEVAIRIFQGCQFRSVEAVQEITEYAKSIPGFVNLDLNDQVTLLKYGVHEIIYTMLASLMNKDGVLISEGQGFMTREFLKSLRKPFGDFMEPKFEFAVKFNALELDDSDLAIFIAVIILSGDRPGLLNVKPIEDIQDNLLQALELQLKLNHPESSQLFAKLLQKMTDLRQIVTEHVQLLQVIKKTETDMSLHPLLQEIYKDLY

[2] = molecular target: Vascular endothelial growth factor receptor 2 (Homo sapiens, UniProt P35968); type: functional
[3] = molecular target: T3, Corticotropin-releasing factor receptor 1 (Homo sapiens, UniProt P34998)
T3 sequence (P34998 whole entry): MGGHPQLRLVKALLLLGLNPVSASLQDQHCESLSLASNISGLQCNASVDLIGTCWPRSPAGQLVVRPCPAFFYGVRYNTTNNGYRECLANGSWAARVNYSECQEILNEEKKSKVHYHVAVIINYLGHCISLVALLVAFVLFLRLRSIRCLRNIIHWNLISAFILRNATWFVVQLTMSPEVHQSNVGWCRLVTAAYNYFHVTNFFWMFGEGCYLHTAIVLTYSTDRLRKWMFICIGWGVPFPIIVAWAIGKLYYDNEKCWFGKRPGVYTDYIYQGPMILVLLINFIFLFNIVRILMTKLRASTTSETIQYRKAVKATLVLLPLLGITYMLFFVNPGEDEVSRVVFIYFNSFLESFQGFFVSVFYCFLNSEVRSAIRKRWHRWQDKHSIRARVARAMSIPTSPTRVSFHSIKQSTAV

[4] = molecular target: T4, 5-hydroxytryptamine receptor 1A (Homo sapiens, UniProt P08908)
T4 sequence (P08908 whole entry): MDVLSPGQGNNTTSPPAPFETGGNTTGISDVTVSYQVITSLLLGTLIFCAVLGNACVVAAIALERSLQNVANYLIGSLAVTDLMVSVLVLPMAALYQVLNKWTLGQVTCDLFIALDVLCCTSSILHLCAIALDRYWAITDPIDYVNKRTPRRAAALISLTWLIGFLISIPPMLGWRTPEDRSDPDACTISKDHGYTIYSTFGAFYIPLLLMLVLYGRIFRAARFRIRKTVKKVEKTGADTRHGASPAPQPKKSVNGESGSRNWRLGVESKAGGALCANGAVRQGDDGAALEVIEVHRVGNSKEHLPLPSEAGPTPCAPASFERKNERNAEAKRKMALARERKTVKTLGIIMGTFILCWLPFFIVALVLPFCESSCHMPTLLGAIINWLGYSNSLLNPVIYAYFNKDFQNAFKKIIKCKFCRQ

[5] = molecular target: T5, Muscarinic acetylcholine receptor M2 (Homo sapiens, UniProt P08172)
T5 sequence (P08172 whole entry): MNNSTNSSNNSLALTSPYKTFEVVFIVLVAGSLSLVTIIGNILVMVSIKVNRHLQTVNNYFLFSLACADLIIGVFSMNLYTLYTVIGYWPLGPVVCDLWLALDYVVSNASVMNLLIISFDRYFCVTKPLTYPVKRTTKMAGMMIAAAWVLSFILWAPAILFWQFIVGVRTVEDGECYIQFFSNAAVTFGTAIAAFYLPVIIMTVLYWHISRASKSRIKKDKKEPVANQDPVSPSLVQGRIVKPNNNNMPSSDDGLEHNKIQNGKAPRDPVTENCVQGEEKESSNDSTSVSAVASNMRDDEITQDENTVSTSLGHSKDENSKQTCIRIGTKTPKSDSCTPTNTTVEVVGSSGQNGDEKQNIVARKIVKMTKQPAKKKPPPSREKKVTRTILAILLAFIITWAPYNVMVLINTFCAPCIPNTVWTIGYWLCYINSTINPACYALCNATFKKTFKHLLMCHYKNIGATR

Estrogen receptor beta = Estrogen receptor beta (Homo sapiens, UniProt Q92731)
Further: assay procedure not described here.

Vascular endothelial growth factor receptor 2, sequence (P35968 whole entry): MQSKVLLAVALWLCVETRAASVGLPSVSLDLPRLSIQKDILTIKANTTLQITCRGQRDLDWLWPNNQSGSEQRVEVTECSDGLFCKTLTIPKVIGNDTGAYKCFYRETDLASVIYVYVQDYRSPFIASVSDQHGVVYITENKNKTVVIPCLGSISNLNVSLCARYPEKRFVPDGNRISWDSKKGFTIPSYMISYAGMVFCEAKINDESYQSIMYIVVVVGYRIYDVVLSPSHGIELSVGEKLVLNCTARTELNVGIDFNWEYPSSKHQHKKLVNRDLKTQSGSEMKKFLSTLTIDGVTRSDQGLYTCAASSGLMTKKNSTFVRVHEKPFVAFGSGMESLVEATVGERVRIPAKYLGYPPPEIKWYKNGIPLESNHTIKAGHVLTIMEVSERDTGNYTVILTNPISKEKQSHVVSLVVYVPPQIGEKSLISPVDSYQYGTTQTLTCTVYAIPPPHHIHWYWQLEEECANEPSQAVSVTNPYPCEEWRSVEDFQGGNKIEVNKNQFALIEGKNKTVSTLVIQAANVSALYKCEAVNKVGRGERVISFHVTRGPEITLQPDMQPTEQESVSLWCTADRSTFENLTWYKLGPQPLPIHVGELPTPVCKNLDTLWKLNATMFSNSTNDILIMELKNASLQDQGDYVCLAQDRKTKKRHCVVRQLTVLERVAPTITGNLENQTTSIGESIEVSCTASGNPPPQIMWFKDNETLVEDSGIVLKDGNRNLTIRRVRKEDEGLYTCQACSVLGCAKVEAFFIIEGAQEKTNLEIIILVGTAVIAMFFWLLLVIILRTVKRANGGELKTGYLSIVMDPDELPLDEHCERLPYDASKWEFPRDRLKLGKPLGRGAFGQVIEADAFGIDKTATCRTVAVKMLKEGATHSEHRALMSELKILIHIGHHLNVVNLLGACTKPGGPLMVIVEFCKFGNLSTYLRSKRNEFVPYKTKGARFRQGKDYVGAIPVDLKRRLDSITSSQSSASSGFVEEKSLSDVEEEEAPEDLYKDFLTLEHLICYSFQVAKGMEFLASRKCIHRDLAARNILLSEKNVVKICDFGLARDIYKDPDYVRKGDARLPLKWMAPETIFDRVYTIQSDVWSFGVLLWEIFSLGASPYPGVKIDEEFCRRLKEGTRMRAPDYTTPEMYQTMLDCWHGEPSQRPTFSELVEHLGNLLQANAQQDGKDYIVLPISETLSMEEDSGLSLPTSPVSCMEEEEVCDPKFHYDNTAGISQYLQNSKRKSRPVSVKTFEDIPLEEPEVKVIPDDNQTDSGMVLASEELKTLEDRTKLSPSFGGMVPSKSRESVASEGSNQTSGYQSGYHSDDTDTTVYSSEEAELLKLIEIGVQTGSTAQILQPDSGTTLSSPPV
Estrogen receptor beta, sequence (Q92731 whole entry): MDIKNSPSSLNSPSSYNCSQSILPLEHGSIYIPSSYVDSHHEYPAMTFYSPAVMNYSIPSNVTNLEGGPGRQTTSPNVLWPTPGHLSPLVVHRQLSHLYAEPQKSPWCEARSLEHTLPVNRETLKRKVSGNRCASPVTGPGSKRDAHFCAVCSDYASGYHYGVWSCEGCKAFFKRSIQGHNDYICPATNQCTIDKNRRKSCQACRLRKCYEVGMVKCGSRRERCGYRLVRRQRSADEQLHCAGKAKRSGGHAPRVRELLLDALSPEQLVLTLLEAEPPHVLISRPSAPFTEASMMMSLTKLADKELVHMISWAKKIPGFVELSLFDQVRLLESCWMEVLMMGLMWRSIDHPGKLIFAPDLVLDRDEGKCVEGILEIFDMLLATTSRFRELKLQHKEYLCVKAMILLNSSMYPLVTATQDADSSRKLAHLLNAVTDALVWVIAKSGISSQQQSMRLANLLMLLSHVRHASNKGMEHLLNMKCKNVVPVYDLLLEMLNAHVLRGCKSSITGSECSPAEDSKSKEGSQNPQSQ

Row | SMILES | AC50 (Estrogen receptor) [µM] | AC50 [1] [µM] | AC50 [2] [µM] | AC50 [3] [µM] | AC50 [4] [µM] | AC50 [5] [µM] | AC50 (Estrogen receptor beta) [µM]
1 | COc1ccccc1OCC(O)CN1CCN(CC(=O)Nc2c(C)cccc2C)CC1 (stereo unspecified) [RANOLAZINE] | > 30 | – | – | – | – | – | –
2 | O=C1Nc2ccc(Cl)cc2[C@@](C#CC2CC2)(C(F)(F)F)O1 [EFAVIRENZ] | > 30 | 18 | – | – | – | – | –
3 | C[C@H]1CNCCc2ccc(Cl)cc21 [LORCASERIN] | – | > 30 | > 30 | – | – | – | –
4 | COCCCN1CCC(NC(=O)c2cc(Cl)c(N)c3c2OCC3)CC1 [PRUCALOPRIDE] | – | > 30 | – | – | – | – | –
5 | Cc1cn([C@H]2C[C@H](N=[N+]=[N-])[C@@H](CO)O2)c(=O)[nH]c1=O [ZIDOVUDINE] | > 30 | – | – | > 30 | > 10 | > 10 | –
6 | Cc1cn([C@H]2C=C[C@@H](CO)O2)c(=O)[nH]c1=O [STAVUDINE] | – | – | > 30 | > 30 | > 10 | > 10 | > 30
7 | CN1C(C(=O)Nc2ccccn2)=C(O)c2sc(Cl)cc2S1(=O)=O [LORNOXICAM] | > 30 | – | – | – | > 10 | – | –
8 | O=C(O[C@H]1C[C@H]2CC[C@@H](C1)[N+]21CCCC1)C(O)(c1ccccc1)c1ccccc1 [TROSPIUM] | – | – | – | – | – | 0.026 | –
9 | Cc1c(C(=O)NN2CCCCC2)nn(-c2ccc(Cl)cc2Cl)c1-c1ccc(Cl)cc1 [RIMONABANT] | > 30 | 17 | > 30 | > 30 | > 10 | – | > 30
10 | CCOC(=O)[C@H](CCc1ccccc1)N[C@@H](C)C(=O)N1[C@H](C(=O)O)C[C@@H]2CCC[C@@H]21 | > 30 | – | – | > 30 | > 10 | > 10 | > 30
11 | CS(=O)(=O)c1ccc(C2=C(c3ccccc3)C(=O)OC2)cc1 [ROFECOXIB] | – | – | – | > 30 | > 10 | > 10 | > 30
12 | C[N+]1(C)CCC(OC(=O)C(O)(c2ccccc2)C2CCCC2)C1 (stereo unspecified) [GLYCOPYRRONIUM BROMIDE] | > 30 | – | – | – | – | – | –
13 | CN(C)CCC(c1ccc(Cl)cc1)c1ccccn1 (stereo unspecified) [CHLORPHENIRAMINE] | – | – | – | > 30 | > 10 | 5.52 | –
14 | c1cnc(N2CCN(Cc3ccc4c(c3)OCO4)CC2)nc1 [PIRIBEDIL] | – | > 30 | > 30 | – | – | – | –
15 | C[C@@H](O)[C@H]1C(=O)N2C(C(=O)O)=C(S[C@@H]3CN[C@H](C(=O)N(C)C)C3)[C@H](C)[C@H]12 [MEROPENEM] | – | > 300 | > 300 | – | – | – | –
16 | CC[C@H]1[C@@H](O)[C@@H]2[C@H](CC[C@]3(C)[C@@H]([C@H](C)CCC(=O)O)CC[C@@H]23)[C@@]2(C)CC[C@@H](O)C[C@@H]12 [OBETICHOLIC ACID] | > 30 | – | – | – | – | – | –
17 | CC1=C(C(=O)O)N2C(=O)[C@@H](NC(=O)[C@H](N)c3ccccc3)[C@H]2SC1 [CEPHALEXIN ANHYDROUS] | > 30 | – | – | > 30 | > 10 | – | > 30
18 | CN(C)CCC=C1c2ccccc2C(C)(C)c2ccccc21 | – | > 30 | > 30 | – | – | – | –

Row | SMILES | AC50 (Estrogen receptor) [µM] | AC50 [1] [µM] | AC50 [2] [µM] | AC50 [3] [µM] | AC50 [4] [µM] | AC50 [5] [µM] | AC50 (Estrogen receptor beta) [µM]
19 | COc1ccc(CC(C)(C)NC[C@H](O)c2cc(O)cc3c2OCC(=O)N3)cc1 [OLODATEROL] | – | > 30 | > 30 | – | – | – | –
20 | CN(C)/N=N/c1[nH]cnc1C(N)=O [DACARBAZINE] | > 10 | – | – | – | – | – | –
21 | c1ccc([C@H]2CN3CCSC3=N2)cc1 [LEVAMISOLE] | – | > 30 | > 30 | – | – | – | –
22 | N[C@@H]1[C@H]2CN(c3nc4c(cc3F)c(=O)c(C(=O)O)cn4-c3ccc(F)cc3F)C[C@@H]12 [TROVAFLOXACIN] | – | > 30 | – | – | – | – | –
23 | CC[C@H]1OC(=O)[C@H](C)[C@@H](O[C@H]2C[C@@](C)(OC)[C@@H](O)[C@H](C)O2)[C@H](C)[C@@H](O[C@@H]2O[C@H](C)C[C@H](N(C)C)[C@H]2O)[C@](C)(O)C[C@@H](C)CN(C)[C@H](C)[C@@H](O)[C@]1(C)O [AZITHROMYCIN] | > 30 | – | – | > 30 | > 10 | > 10 | > 30
24 | CNC1Cc2ccccc2N(C)c2ccccc21 (stereo unspecified) [METAPRAMINE] | – | > 30 | > 30 | – | – | – | –
25 | COc1cc(NC(C)CCCN)c2ncccc2c1 (stereo unspecified) [PRIMAQUINE] | 6.7 | – | – | – | – | – | –
26 | CC(C)C[C@H]1C(=O)N2CCC[C@H]2[C@]2(O)O[C@](NC(=O)[C@@H]3C=C4c5cccc6[nH]c(Br)c(c56)C[C@H]4N(C)C3)(C(C)C)C(=O)N12 [BROMOCRIPTINE] | – | > 30 | > 30 | > 30 | 0.319 | > 10 | –
27 | O=C(OCC(O)CO)c1ccccc1Nc1ccnc2cc(Cl)ccc12 (stereo unspecified) [GLAFENINE] | – | > 30 | 13 | – | – | – | –
28 | Nc1ccn([C@H]2CC[C@@H](CO)O2)c(=O)n1 [ZALCITABINE] | > 10 | – | – | – | – | – | –
29 | CCCCN1C[C@H](O)[C@@H](O)[C@H](O)[C@H]1CO | > 30 | – | – | – | – | – | –
30 | C[C@]12CCC(=O)C=C1CC[C@@H]1[C@@H]2[C@@H](O)C[C@@]2(C)[C@H]1CC[C@]2(O)C(=O)CO [HYDROCORTISONE] | – | – | – | > 30 | > 10 | > 10 | > 30
31 | COc1cc2nc(N(C)CCCNC(=O)C3CCCO3)nc(N)c2cc1OC (stereo unspecified) [ALFUZOSIN] | > 30 | – | – | – | – | – | –
32 | C1CCC(C(CC2CCCCN2)C2CCCCC2)CC1 (stereo unspecified) [PERHEXILINE] | – | > 30 | > 30 | – | – | – | –
33 | Cc1ccc(-c2cc(C(F)(F)F)nn2-c2ccc(S(N)(=O)=O)cc2)cc1 [CELECOXIB] | > 30 | – | – | > 30 | > 10 | > 10 | –
34 | Clc1ccc2nsnc2c1NC1=NCCN1 [TIZANIDINE] | > 30 | – | – | > 30 | > 10 | > 10 | > 30
35 | CO[C@H]1C[C@@H]2CC[C@@H](C)[C@@](O)(O2)C(=O)C(=O)N2CCCC[C@H]2C(=O)O[C@H]([C@H](C)C[C@@H]2CC[C@@H](O)[C@H](OC)C2)CC(=O)[C@H](C)/C=C(\C)[C@@H](O)[C@@H](OC)C(=O)[C@H](C)C[C@H](C)/C=C/C=C/C=C/1C [SIROLIMUS] | > 30 | – | – | > 30 | > 10 | – | > 30
36 | CCC(C)n1ncn(-c2ccc(N3CCN(c4ccc(OCC5COC(Cn6cncn6)(c6ccc(Cl)cc6Cl)O5)cc4)CC3)cc2)c1=O (stereo unspecified) [ITRACONAZOLE] | > 30 | – | – | > 30 | > 10 | > 10 | > 30
